Data reported in patent publication US11180504B2 (ORCHID PHARMA LTD., priority 2016, dated 2021).
Values after ≈ are worked out from the molar mass of the structure shown.

What was measured:
[1] = tested on: methicillin-sensitive Staphylococcus aureus; assay: MIC by broth micro-dilution (CLSI), methicillin-sensitive S. aureus; assay type: cell-based; conditions: Staphylococcus aureus, ATCC 29213 / MSSA, MSSA S. aureus ATCC29213; read-out: MIC
[2] = tested on: carbapenemase producing K. pneumoniae; assay: MIC by broth micro-dilution (CLSI), carbapenemase producing K. pneumoniae; assay type: cell-based, Klebsiella pneumoniae; conditions: Klebsiella pneumoniae, ATCCBAA1705, KPC-2 K. pneumoniae ATCC BAA-1705; read-out: MIC
[3] = tested on: carbapenem sensitive Escherichia coli; assay: MIC by broth micro-dilution (CLSI), carbapenem sensitive E. coli; assay type: cell-based; conditions: Escherichia coli, ATCC25922, ESBL −ve E. coli ATCC25922; read-out: MIC
[4] = tested on: carbapenem sensitive Pseudomonas aeruginosa; assay: MIC by broth micro-dilution (CLSI), carbapenem sensitive P. aeruginosa; assay type: cell-based; conditions: Pseudomonas aeruginosa, ATCC27853, Meropenem susceptible P. aeruginosa ATCC27853; read-out: MIC

| SMILES | MIC [1] [µg/mL] | MIC [2] [µg/mL] | MIC [3] [µg/mL] | MIC [4] [µg/mL] |
| --- | --- | --- | --- | --- |
| CNCC(=O)N[C@H](C)[C@H]1C(=O)N2C(C(=O)O)=C(S[C@@H]3CN[C@H](CNS(=O)(=O)N4CCNCC4)C3)[C@H](C)[C@H]12 [Example 252] | 16 (≈ 28.6 µM) | 4 (≈ 7.15 µM) | 2 (≈ 3.57 µM) | 16 (≈ 28.6 µM) |
| CNCC(=O)N[C@H](C)[C@H]1C(=O)N2C(C(=O)O)=C(S[C@@H]3CN[C@H](CNS(=O)(=O)N4CC[C@H](N)C4)C3)[C@H](C)[C@H]12 [Example 253] | 32 (≈ 57.2 µM) | 16 (≈ 28.6 µM) | 16 (≈ 28.6 µM) | 16 (≈ 28.6 µM) |
| CNCC(=O)N[C@H](C)[C@H]1C(=O)N2C(C(=O)O)=C(S[C@@H]3CN[C@H](CNC(=O)c4cc(=O)c(O)cn4C)C3)[C@H](C)[C@H]12 [Example 254] | 64 (≈ 114 µM) | 16 (≈ 28.4 µM) | 8 (≈ 14.2 µM) | 128 (≈ 227 µM) |
| CNCC(=O)N[C@H](C)[C@H]1C(=O)N2C(C(=O)O)=C(S[C@@H]3CN[C@H](CNC(=O)[C@H]4CC[C@@H](N)C4)C3)[C@H](C)[C@H]12 [Example 255] | 8 (≈ 15.3 µM) | 8 (≈ 15.3 µM) | 4 (≈ 7.65 µM) | 32 (≈ 61.2 µM) |
| CNCC(=O)N[C@H](C)[C@H]1C(=O)N2C(C(=O)O)=C(SC3CN(C4=NCCS4)C3)[C@H](C)[C@H]12 [Example 256] | 4 (≈ 8.82 µM) | 2 (≈ 4.41 µM) | 1 (≈ 2.2 µM) | 32 (≈ 70.5 µM) |
| CNCC(=O)N[C@H](C)[C@H]1C(=O)N2C(C(=O)O)=C(SCCn3cc(O)c(=O)cc3CN)[C@H](C)[C@H]12 [Example 257] | > 128 | 16 (≈ 33.4 µM) | 4 (≈ 8.34 µM) | 128 (≈ 267 µM) |
| C[C@@H](NC(=O)C(F)F)[C@H]1C(=O)N2C(C(=O)O)=C(S[C@@H]3CN[C@H](CNC(=O)[C@H]4CC[C@@H](N)C4)C3)[C@H](C)[C@H]12 [Example 258] | 1 (≈ 1.89 µM) | 16 (≈ 30.2 µM) | 4 (≈ 7.55 µM) | 128 (≈ 242 µM) |
| C[C@@H](NC(=O)C(F)F)[C@H]1C(=O)N2C(C(=O)O)=C(S[C@@H]3CN[C@H](CNC(=O)[C@@H]4C[C@H](N)CN4)C3)[C@H](C)[C@H]12 [Example 259] | 2 (≈ 3.77 µM) | 16 (≈ 30.2 µM) | 4 (≈ 7.54 µM) | > 128 |
| C[C@@H](NC(=O)C(F)F)[C@H]1C(=O)N2C(C(=O)O)=C(S[C@@H]3CN[C@H](CNC(=O)[C@@H]4CC[C@H](N)C4)C3)[C@H](C)[C@H]12 [Example 260] | 1 (≈ 1.89 µM) | 8 (≈ 15.1 µM) | 4 (≈ 7.55 µM) | 32 (≈ 60.4 µM) |
| C[C@@H](NC(=O)C(F)F)[C@H]1C(=O)N2C(C(=O)O)=C(S[C@@H]3CN[C@H](CNC(=O)[C@@H]4C[C@@H](N)CN4)C3)[C@H](C)[C@H]12 [Example 261] | 2 (≈ 3.77 µM) | 16 (≈ 30.2 µM) | 2 (≈ 3.77 µM) | 64 (≈ 121 µM) |
| CNCC(=O)N[C@H](C)[C@H]1C(=O)N2C(C(=O)O)=C(S[C@@H]3CN[C@H](CNC(=O)[C@@H]4CCC(N)C4)C3)[C@H](C)[C@H]12 (some centres unmarked) [Example 262] | 32 (≈ 61.2 µM) | 16 (≈ 30.6 µM) | 4 (≈ 7.65 µM) | 64 (≈ 122 µM) |
| C[C@@H](NC(=O)C(F)F)[C@H]1C(=O)N2C(C(=O)O)=C(SC3CN(C4=NCCS4)C3)[C@H](C)[C@H]12 [Example 263] | 0.25 (≈ 0.543 µM) | 2 (≈ 4.34 µM) | 0.25 (≈ 0.543 µM) | 128 (≈ 278 µM) |
| CNCC(=O)N[C@H](C)[C@H]1C(=O)N2C(C(=O)O)=C(S[C@@H]3CN[C@H](C(=O)N4CC[C@H](N)C[C@@H]4C)C3)[C@H](C)[C@H]12 [Example 264] | 16 (≈ 30.6 µM) | 4 (≈ 7.65 µM) | 2 (≈ 3.83 µM) | 8 (≈ 15.3 µM) |
| CC(=O)N1C[C@@H](N)C[C@H]1CSC1=C(C(=O)O)N2C(=O)[C@H]([C@@H](C)NC(=O)C(F)F)[C@H]2[C@H]1C [Example 265] | 2 (≈ 4.34 µM) | 8 (≈ 17.4 µM) | 2 (≈ 4.34 µM) | > 128 |
| C[C@@H](NC(=O)[C@H]1CC[C@@H](N)C1)[C@H]1C(=O)N2C(C(=O)O)=C(S[C@@H]3CN[C@H](C(=O)N(C)C)C3)[C@H](C)[C@H]12 [Example 266] | 64 (≈ 130 µM) | 8 (≈ 16.2 µM) | 2 (≈ 4.05 µM) | 128 (≈ 259 µM) |
| C[C@@H](NC(=O)C(F)F)[C@H]1C(=O)N2C(C(=O)O)=C(SC[C@@H]3C[C@H](NS(N)(=O)=O)CN3)[C@H](C)[C@H]12 [Example 267] | 0.5 (≈ 1 µM) | 2 (≈ 4.02 µM) | 1 (≈ 2.01 µM) | > 128 |
| C[C@@H](NC(=O)CC(N)=O)[C@H]1C(=O)N2C(C(=O)O)=C(S[C@@H]3CN[C@H](C(=O)N(C)C)C3)[C@H](C)[C@H]12 [Example 268] | 8 (≈ 17.1 µM) | 4 (≈ 8.56 µM) | 2 (≈ 4.28 µM) | 32 (≈ 68.4 µM) |
| CNCC(=O)N[C@H](C)[C@H]1C(=O)N2C(C(=O)O)=C(SC[C@@H]3C[C@H](NS(N)(=O)=O)CN3)[C@H](C)[C@H]12 [Example 269] | 16 (≈ 32.6 µM) | 4 (≈ 8.15 µM) | 4 (≈ 8.15 µM) | 128 (≈ 261 µM) |

| SMILES | MIC [1] [µg/mL] | MIC [2] [µg/mL] | MIC [3] [µg/mL] | MIC [4] [µg/mL] |
| --- | --- | --- | --- | --- |
| C[C@@H](NC(=O)[C@@H]1CSCN1)[C@H]1C(=O)N2C(C(=O)O)=C(S[C@@H]3CN[C@H](C(=O)N(C)C)C3)[C@H](C)[C@H]12 [Example 270] | 4 (≈ 8.04 µM) | 4 (≈ 8.04 µM) | 1 (≈ 2.01 µM) | 64 (≈ 129 µM) |
| C[C@@H](NC(=O)[C@@H]1CSCN1)[C@H]1C(=O)N2C(C(=O)O)=C(S[C@@H]3CN[C@H](C(=O)N4CC[C@@H](N)C4)C3)[C@H](C)[C@H]12 [Example 271] | 2 (≈ 3.71 µM) | 4 (≈ 7.43 µM) | 1 (≈ 1.86 µM) | 8 (≈ 14.9 µM) |
| CNC(=O)CC(=O)N[C@H](C)[C@H]1C(=O)N2C(C(=O)O)=C(S[C@@H]3CN[C@H](C(=O)N(C)C)C3)[C@H](C)[C@H]12 [Example 272] | 128 (≈ 266 µM) | 64 (≈ 133 µM) | 64 (≈ 133 µM) | > 128 |
| CNCC(=O)N[C@H](C)[C@H]1C(=O)N2C(C(=O)O)=C(SC[C@H](N)C(=O)N3CC[C@@H](N)C3)[C@H](C)[C@H]12 [Example 273] | 128 (≈ 273 µM) | 32 (≈ 68.3 µM) | 16 (≈ 34.1 µM) | 128 (≈ 273 µM) |
| CCCCN[C@H](C)[C@H]1C(=O)N2C(C(=O)O)=C(S[C@@H]3CN[C@H](C(=O)N(C)C)C3)[C@H](C)[C@H]12 [Example 274] | 32 (≈ 73 µM) | 16 (≈ 36.5 µM) | 16 (≈ 36.5 µM) | > 128 |
| CNCC(=O)N[C@H](C)[C@H]1C(=O)N2C(C(=O)O)=C(S[C@@H]3CN[C@H](C(=O)N4CCC(N)(Cc5ccccc5)CC4)C3)[C@H](C)[C@H]12 [Example 275] | 64 (≈ 107 µM) | 64 (≈ 107 µM) | 16 (≈ 26.7 µM) | > 128 |
| CNCC(=O)N[C@H](C)[C@H]1C(=O)N2C(C(=O)O)=C(S[C@@H]3CN[C@H](C(=O)N4CCC(N)(C(N)=O)CC4)C3)[C@H](C)[C@H]12 [Example 277] | 64 (≈ 116 µM) | 4 (≈ 7.25 µM) | 2 (≈ 3.63 µM) | 16 (≈ 29 µM) |
| CNCC(=O)N[C@H](C)[C@H]1C(=O)N2C(C(=O)O)=C(S[C@@H]3CN[C@H](C(=O)N4CCC(C)(N)CC4)C3)[C@H](C)[C@H]12 [Example 278] | 16 (≈ 30.6 µM) | 2 (≈ 3.83 µM) | 2 (≈ 3.83 µM) | 4 (≈ 7.65 µM) |
| CNCC(=O)N[C@H](C)[C@H]1C(=O)N2C(C(=O)O)=C(S[C@@H]3CN[C@H](C(=O)NC4CCOCC4)C3)[C@H](C)[C@H]12 [Example 279] | > 128 | 16 (≈ 31.4 µM) | 4 (≈ 7.85 µM) | > 128 |
| C[C@@H](NC(=O)[C@@H]1CS(=O)(=O)CN1)[C@H]1C(=O)N2C(C(=O)O)=C(S[C@@H]3CN[C@H](C(=O)N4CC[C@@H](N)C4)C3)[C@H](C)[C@H]12 [Example 280] | 64 (≈ 112 µM) | 8 (≈ 14 µM) | 8 (≈ 14 µM) | 16 (≈ 28 µM) |
| C[C@@H](NC(=O)[C@@H]1CS(=O)(=O)CN1)[C@H]1C(=O)N2C(C(=O)O)=C(S[C@@H]3CN[C@H](CNS(N)(=O)=O)C3)[C@H](C)[C@H]12 [Example 281] | 32 (≈ 56.5 µM) | 16 (≈ 28.2 µM) | 8 (≈ 14.1 µM) | 64 (≈ 113 µM) |
| CNCC(=O)N[C@H](C)[C@H]1C(=O)N2C(C(=O)O)=C(S[C@@H]3CN[C@H](CNC(=O)[C@@H]4C[C@H](F)CN4)C3)[C@H](C)[C@H]12 [Example 282] | 32 (≈ 60.8 µM) | 2 (≈ 3.8 µM) | 1 (≈ 1.9 µM) | 32 (≈ 60.8 µM) |
| C[C@@H](NC(=O)Cn1cnnn1)[C@H]1C(=O)N2C(C(=O)O)=C(S[C@@H]3CN[C@H](C(=O)N(C)C)C3)[C@H](C)[C@H]12 [Example 283] | 16 (≈ 32.5 µM) | 0.5 (≈ 1.02 µM) | 0.25 (≈ 0.508 µM) | 8 (≈ 16.2 µM) |
| C[C@@H](NC(=O)[C@H]1CS(=O)(=O)CN1)[C@H]1C(=O)N2C(C(=O)O)=C(S[C@@H]3CN[C@H](C(=O)N(C)C)C3)[C@H](C)[C@H]12 [Example 284] | 1 (≈ 1.89 µM) | 4 (≈ 7.55 µM) | 1 (≈ 1.89 µM) | 64 (≈ 121 µM) |
| C[C@@H](NC(=O)[C@H]1CNCCN1)[C@H]1C(=O)N2C(C(=O)O)=C(S[C@@H]3CN[C@H](C(=O)N(C)C)C3)[C@H](C)[C@H]12 [Example 285] | 64 (≈ 129 µM) | 8 (≈ 16.2 µM) | 4 (≈ 8.09 µM) | 128 (≈ 259 µM) |
| CNCC(=O)N[C@H](C)[C@H]1C(=O)N2C(C(=O)O)=C(S[C@@H]3CN[C@H](C(=O)N4C[C@@H](N)C[C@H]4C)C3)[C@H](C)[C@H]12 [Example 287] | 128 (≈ 252 µM) | 8 (≈ 15.7 µM) | 4 (≈ 7.86 µM) | 16 (≈ 31.5 µM) |
| CNCC(=O)N[C@H](C)[C@H]1C(=O)N2C(C(=O)O)=C(S[C@@H]3CN[C@H](C(=O)N4C[C@H](N)C[C@H]4c4ccccc4)C3)[C@H](C)[C@H]12 [Example 288] | 128 (≈ 224 µM) | 16 (≈ 28 µM) | 4 (≈ 7.01 µM) | > 128 |
